Values of other authors as cited in patent US11230553B2, “Nannocystin process and products” (THE RESEARCH FOUNDATION FOR THE STATE UNIVERSITY OF NEW YORK, priority 2016, dated 2022).
pIC50: −log10 of the molar value.

Key:
PC3 = PC3 cancer cell line; read-out: IC50 against PC3
HCT116 = HCT116 cancer cell line; read-out: IC50 against HCT116
HL60 = HL60 cancer cell line; read-out: IC50 against HL60

## CC[C@H](C)[C@H]1C(=O)N[C@H](Cc2cc(Cl)c(O)c(Cl)c2)C(=O)N[C@@H](C(C)(C)O)C(=O)O[C@H](c2ccccc2)[C@H](C)/C=C/C=C(\C)[C@H](OC)C[C@@H]2O[C@@]2(C)C(=O)N1C [nannocystin A, (1), (1R,4S,7R,10S,13S,14R,15E,17E,19R,21S)-4-((S)-sec-butyl)-7-(3,5-dichloro-4-hydroxybenzyl)-10-(2-hydroxypropan-2-yl)-19-methoxy-1,3,14,18-tetramethyl-13-phenyl-12,22-dioxa-3,6,9-triazabicyclo[19.1.0]docosa-15,17-diene-2,5,8,11-tetraone]
PC3
  pIC50: 9.00
HCT116
  pIC50: 8.92
HL60
  pIC50: 7.92
472 cancer cell lines
  anti-proliferative properties against 472 cancer cell lines: nanomolar concentration range
